How the values were obtained:
ICR mice = assay: Carbon tetrachloride (CCl4)-induced hepatic dysfunction model in mice, blood plasma AST and ALT levels; assay type: in vivo; conditions: male ICR mice; 400 mg/kg/day once-daily oral for three days, then CCl4 0.04 mL/kg i.p.; blood 16 hours after CCl4; compared with group 2 (vehicle+CCl4)
Method: GSSSG dihydrate prepared by the method described in Patent Literature 1 was crushed in a mortar. To 10 mL of distilled water, the crushed GSSSG dihydrate (200 mg in terms of anhydride) was added and suspended. Then, twice as much sodium hydrogen carbonate as the GSSSG anhydride was added thereto on a molar basis, and the resultant mixture was mixed for 10 minutes. The obtained GSSSG solution was further diluted with distilled water to obtain administration samples 3 and 4. In addition, reduced glutathione (GSH) or oxidized glutathione (GSSG), manufactured by KYOWA HAKKO BIO Co., Ltd., was dissolved in distilled water to obtain each of administration samples 1 and 2.
Four-week-old male ICR mice (Charles River Laboratories Japan, Inc.) were acclimated for 1 week and then subjected to a test at 5 weeks of age. During the test period, the mice were allowed to freely drink water regarding water, allowed to freely ingest a solid feed CE-2 (CLEA Japan, Inc.), and kept at a temperature of 20° C. to 24° C., a humidity of 50% to 60%, and for 12 hours of light-dark cycle. Thereafter, the mice were divided into groups 1 to 6 so that each group included 3 or 4 mice. • Group 1: Normal (vehicle-no symptoms induced) • Group 2: Vehicle+CCl4 • Group 3: GSH 400 mg/kg/day (administration sample 1)+CCl4 • Group 4: GSSG 400 mg/kg/day (administration sample 2)+CCl4 • Group 5: GSSSG 100 mg/kg/day (administration sample 3)+CCl4
Group 6: GSSSG 400 mg/kg/day (administration sample 4)+CCl4
After the group dividing, the vehicle, the administration sample 1, the administration sample 2, the administration sample 3, or the administration sample 4 was subjected to an once-daily forced oral administration at the above-described dose for a total of three consecutive days. After 30 minutes from the final oral administration, CCl4 (0.04 mL/kg) suspended in olive oil was intraperitoneally administered to induce hepatic dysfunction.

HepG2 cells = assay: Protective effect against hepatocellular damage by hydrogen peroxide in HepG2 cells, cell survival rate by MTT assay; assay type: cell-based, human; conditions: for Cell survival rate (%): then 0.1 mM hydrogen peroxide for 2 hours, control group = 100; for cell survival rate as compared with the solvent addition group: sample added before 0.1 mM hydrogen peroxide
Method: A human hepatoma-derived cell line (HepG2: HB-8065™, Lot number: 70029112) was obtained from American Type Culture Collection, and Dulbecco's Modified Eagle Medium containing 10% FBS (Thermo Fisher Scientific, Inc.) was used as a basal medium. Cells were cultured in an incubator of 37° C. and 5% CO2, and the cells that had been passaged to 16 to 25 generations were subjected to experimentation. The used GSSG and GSSSG were those manufactured by KYOWA HAKKO BIO Co., Ltd.
0.15 mL of a cell suspension obtained by adjusting the initial cell concentration to 2×10^4 cells/mL was seeded in a 96-well plate (Thermo Fisher Scientific, Inc.).
After the culturing for 4 hours from the seeding, GSSSG (for the addition group of the final concentration of 0.05 mM and the addition group of the final concentration of 0.1 mM) was added to the culture medium. In addition, apart from this, a group in which only the solvent of GSSSG (PBS in which sodium hydrogen carbonate was dissolved so that the concentration thereof was 15.8 mM) was added was defined as a solvent addition group. After the culturing for 20 hours from the sample addition, the culture medium was replaced with a culture medium (not containing GSSSG) obtained by adding hydrogen peroxide solution (FUJIFILM Wako Pure Chemical Corporation) to the above-described sample addition group and the solvent addition group so that the final concentration thereof was 0.1 mM, and then hepatocellular damage was induced. The control group was the group in which the same amount of PBS was added to the solvent addition group instead of hydrogen peroxide solution. After the culturing for 2 hours from the addition of hydrogen peroxide solution or PBS, the cell survival rate was measured according to the MTT assay, and the degree of hepatocellular damage was evaluated. For GSSG as well, an experiment was carried out in the same manner as in the GSSSG, except that PBS was used as a solvent.

| Compound | blood plasma ALT level (ICR mice) | blood plasma AST level (ICR mice) | Cell survival rate (%) (HepG2 cells; sample 0.05 mM for 20 hours) | Cell survival rate (%) (HepG2 cells; sample 0.1 mM for 20 hours) | cell survival rate as compared with the solvent addition group (HepG2 cells) |
| --- | --- | --- | --- | --- | --- |
| oxidized glutathione [GSSG] | significant suppression | significant suppression | 39.4 | 38.4 | significantly decreased |
| N[C@@H](CCC(=O)N[C@@H](CS)C(=O)NCC(=O)O)C(=O)O [GSH, reduced glutathione] | significant suppression | significant suppression |  |  |  |
| N[C@@H](CCC(=O)N[C@@H](CSSSC[C@H](NC(=O)CC[C@H](N)C(=O)O)C(=O)NCC(=O)O)C(=O)NCC(=O)O)C(=O)O [GSSSG, glutathione trisulfide] | tendency of the suppression | tendency of the suppression | 36.9 | 49.7 | improved survival rate |

Reference: US20250152535A1, “COMPOSITION FOR PREVENTING OR IMPROVING HEPATIC DYSFUNCTION” (KYOWA HAKKO BIO CO., LTD., priority 2022, published 2025)
